A short description of test [1]: intracellular Trypanosoma cruzi inhibitors in host cells – cell-based, plate reader, cherry-pick samples, set 3, dose response (AID 651818).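 Note: compounds incubated with infected cells for about four days.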 In kind it is functional.
The target in test [2] is T1, Corticotropin-releasing factor receptor 2/Corticotropin-releasing factor-binding protein (Homo sapiens, UniProt P24387+Q13324).
T1 sequence (Q13324 whole entry): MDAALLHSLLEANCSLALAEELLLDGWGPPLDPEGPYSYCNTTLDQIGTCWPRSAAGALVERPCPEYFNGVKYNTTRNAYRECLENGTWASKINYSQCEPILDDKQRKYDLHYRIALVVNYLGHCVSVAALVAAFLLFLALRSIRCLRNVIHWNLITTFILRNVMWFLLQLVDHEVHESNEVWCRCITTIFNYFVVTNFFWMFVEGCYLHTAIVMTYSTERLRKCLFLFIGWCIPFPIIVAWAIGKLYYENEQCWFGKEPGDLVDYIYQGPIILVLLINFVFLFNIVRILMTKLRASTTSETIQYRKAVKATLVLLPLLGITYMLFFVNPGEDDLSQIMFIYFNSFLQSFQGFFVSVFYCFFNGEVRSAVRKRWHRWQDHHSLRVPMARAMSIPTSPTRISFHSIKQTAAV
T1 sequence (P24387 whole entry): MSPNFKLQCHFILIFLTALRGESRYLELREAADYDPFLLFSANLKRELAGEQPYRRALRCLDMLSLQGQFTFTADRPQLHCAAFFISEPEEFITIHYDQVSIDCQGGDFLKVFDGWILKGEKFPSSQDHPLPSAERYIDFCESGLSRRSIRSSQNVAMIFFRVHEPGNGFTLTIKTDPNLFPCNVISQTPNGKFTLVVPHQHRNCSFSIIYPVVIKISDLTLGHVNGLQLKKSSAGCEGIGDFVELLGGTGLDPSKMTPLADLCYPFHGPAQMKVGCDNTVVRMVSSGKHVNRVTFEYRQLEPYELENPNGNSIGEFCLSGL
The test can be described thus: Dose Response confirmation of uHTS hits for small molecule antagonists of the CRF-binding protein and CRF-R2 receptor complex. In kind it is functional. Conditions: read-out: IC50_Mean.

Test [3] concerns the target T1, Corticotropin-releasing factor receptor 2/Corticotropin-releasing factor-binding protein. As to the kind of experiment: activators of CRF receptor 2 with binding protein – uHTS hits, confirmation (AID 602473). In kind it is functional. As to conditions: read-out: EC50_Mean.
Test [4] is described as follows: blockers of CRF-binding protein–CRF-R2 complex – cell-based, uHTS hits, 384-well, dose response (AID 651639). In kind it is functional, Homo sapiens. As to conditions: read-out: IC50_Mean.
For test [5], the system named is H9c2. As to the kind of experiment: cells. In kind it is functional, cell-based. Conditions: Rattus norvegicus, H9c2, Myocardium.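 Note: confirmatory concentration-response retest of ultra-high-throughput screening hits for modulation of myocardial damage; cell death induced by hydrogen peroxide oxidative stress; compound pretreatment for 60 min then peroxide exposure for 2 h; potency is for protecting the cells against peroxide damage rather than for killing them.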
Test [6] addresses T2, Sentrin-specific protease 8 (Homo sapiens, UniProt Q96LD8).
T2 sequence (Q96LD8 whole entry): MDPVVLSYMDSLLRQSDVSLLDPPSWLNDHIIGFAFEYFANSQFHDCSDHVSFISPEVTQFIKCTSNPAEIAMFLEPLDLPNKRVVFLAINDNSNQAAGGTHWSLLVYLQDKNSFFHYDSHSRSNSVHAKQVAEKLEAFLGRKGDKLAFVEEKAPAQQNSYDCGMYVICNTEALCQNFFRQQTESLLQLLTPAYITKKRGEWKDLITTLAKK
As to the kind of experiment: inhibition of human SENP8 cleavage activity – biochemical, luminescence, SAR follow-up (AID 504501). In kind it is functional.

For test [7], the target named is T3, Caspase-3 (Homo sapiens, UniProt P42574).
T3 sequence (P42574 whole entry): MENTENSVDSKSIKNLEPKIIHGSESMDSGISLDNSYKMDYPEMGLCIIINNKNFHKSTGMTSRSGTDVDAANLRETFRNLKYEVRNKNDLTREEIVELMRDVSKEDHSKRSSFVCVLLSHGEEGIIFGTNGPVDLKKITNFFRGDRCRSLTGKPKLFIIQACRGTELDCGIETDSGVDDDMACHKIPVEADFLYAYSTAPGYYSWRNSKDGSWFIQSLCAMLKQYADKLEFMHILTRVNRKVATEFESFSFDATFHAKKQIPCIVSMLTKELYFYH
The test can be described thus: SAR Analysis of small molecule inhibitors of Sentrin-specific proteases (SENPs) using a Caspase-3 Selectivity assay. [Related pubchem assays (depositor defined):AID2540, AID2599, AID434973, AID489001]. In kind it is functional.

Test [8] deals with T4, Sentrin-specific protease 6 (Homo sapiens, UniProt Q9GZR1).
T4 sequence (Q9GZR1 whole entry): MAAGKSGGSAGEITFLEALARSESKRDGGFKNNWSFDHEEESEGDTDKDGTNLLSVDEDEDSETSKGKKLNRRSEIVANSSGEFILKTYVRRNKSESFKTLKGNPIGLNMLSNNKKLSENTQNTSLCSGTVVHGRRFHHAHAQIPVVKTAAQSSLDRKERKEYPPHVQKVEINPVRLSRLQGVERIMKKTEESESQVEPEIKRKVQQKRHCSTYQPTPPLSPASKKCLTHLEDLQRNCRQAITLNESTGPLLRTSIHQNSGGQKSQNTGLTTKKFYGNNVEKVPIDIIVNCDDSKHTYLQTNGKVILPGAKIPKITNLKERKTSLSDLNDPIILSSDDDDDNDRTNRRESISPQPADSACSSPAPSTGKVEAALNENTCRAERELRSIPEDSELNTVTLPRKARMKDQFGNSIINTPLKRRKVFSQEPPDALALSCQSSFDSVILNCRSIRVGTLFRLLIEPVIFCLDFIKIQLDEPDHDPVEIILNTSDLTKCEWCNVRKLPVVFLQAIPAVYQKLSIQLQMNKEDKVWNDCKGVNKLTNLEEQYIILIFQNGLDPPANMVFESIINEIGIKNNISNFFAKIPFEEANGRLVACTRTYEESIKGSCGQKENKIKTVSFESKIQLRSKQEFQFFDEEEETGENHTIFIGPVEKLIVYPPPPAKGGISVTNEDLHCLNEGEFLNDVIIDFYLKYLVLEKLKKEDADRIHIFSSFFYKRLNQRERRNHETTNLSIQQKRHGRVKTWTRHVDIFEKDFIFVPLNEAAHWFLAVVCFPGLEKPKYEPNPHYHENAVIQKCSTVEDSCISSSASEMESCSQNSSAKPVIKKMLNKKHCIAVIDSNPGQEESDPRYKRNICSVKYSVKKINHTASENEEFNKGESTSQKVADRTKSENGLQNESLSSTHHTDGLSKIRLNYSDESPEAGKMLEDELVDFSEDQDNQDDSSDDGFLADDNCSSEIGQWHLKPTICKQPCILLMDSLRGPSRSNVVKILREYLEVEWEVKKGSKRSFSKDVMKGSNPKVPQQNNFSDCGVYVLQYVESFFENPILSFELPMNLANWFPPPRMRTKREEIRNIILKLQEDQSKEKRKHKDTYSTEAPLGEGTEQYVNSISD
As to the kind of experiment: SAR Analysis of small molecule inhibitors of Sentrin-specific protease 6 (SENP6) using a Luminescent assay. [Related pubchem assays (depositor defined):AID2582, AID2599]. In kind it is functional.

In test [9] the target is T5, Sentrin-specific protease 7 (Homo sapiens, UniProt Q9BQF6).
T5 sequence (Q9BQF6 whole entry): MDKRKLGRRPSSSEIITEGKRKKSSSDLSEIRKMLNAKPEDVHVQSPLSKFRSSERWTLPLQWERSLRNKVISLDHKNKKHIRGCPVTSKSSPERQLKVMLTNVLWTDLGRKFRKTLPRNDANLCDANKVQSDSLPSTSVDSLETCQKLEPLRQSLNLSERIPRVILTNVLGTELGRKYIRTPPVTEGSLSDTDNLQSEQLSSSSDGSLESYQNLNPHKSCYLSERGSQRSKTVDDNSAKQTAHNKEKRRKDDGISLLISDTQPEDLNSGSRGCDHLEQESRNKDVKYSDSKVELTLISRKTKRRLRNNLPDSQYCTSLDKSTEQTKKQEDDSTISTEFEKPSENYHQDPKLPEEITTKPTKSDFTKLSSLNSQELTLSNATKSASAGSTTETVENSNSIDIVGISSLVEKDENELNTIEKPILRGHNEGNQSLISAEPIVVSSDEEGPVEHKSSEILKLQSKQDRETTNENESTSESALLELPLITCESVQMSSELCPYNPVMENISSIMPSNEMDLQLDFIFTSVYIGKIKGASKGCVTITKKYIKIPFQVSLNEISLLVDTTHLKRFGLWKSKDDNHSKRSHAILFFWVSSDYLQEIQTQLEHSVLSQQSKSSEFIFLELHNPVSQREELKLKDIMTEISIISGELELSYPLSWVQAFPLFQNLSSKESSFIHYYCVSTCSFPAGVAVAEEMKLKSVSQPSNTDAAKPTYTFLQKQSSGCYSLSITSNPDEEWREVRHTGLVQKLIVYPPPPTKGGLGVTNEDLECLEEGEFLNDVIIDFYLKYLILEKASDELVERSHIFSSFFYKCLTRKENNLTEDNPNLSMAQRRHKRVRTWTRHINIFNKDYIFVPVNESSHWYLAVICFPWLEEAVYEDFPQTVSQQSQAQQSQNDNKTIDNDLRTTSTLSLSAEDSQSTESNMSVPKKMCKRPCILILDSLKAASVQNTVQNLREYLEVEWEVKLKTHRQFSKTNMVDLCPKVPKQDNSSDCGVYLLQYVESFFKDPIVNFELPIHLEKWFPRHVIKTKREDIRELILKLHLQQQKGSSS
The test can be described thus: inhibition of human SENP7 cleavage activity – biochemical, luminescence, SAR follow-up (AID 504497). In kind it is functional.

Test [10] concerns SN12K1. As to the kind of experiment: cells. In kind it is functional. As to conditions: Homo sapiens.
Test [11] deals with INS1. The test can be described thus: INS-1E survival protection against cytokine death – cell-based, luminescence, retest, dose response (AID 449756).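 Note: cell death triggered by IL-1 beta plus TNF-alpha plus IFN-gamma mixture; protective hits raise ATP signal compared with cytokine alone wells.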 In kind it is functional. As to conditions: Rattus norvegicus.

The source made the active and inactive calls.

What is called AC50 is the concentration at which the activity in the assay is half-maximal. Take `C[C@@H]1CN([C@H](C)CO)C(=O)Cc2cc(NC(=O)Nc3cccc4ccccc34)ccc2O[C@@H]1CN(C)Cc1ccc(C(F)(F)F)cc1`: in [1], the AC50 is 4.02 µM (active).

For the compound `Cc1ccc(S(=O)(=O)c2nnn3c2nc(N2CCOCC2)c2ccccc23)c(C)c1`, the IC50 in test [2] is < 0.368 µM (active); in [4] it was > 20 µM (inactive). Also, the EC50 in test [3] was > 53 µM (inactive).

Regarding `O=C(NCc1ccc2c(c1)OCO2)c1c(F)c(F)c(F)c(F)c1F`, the IC50 in test [2] was 18.7 µM (active); in [4], 8.28 µM (active). In test [3], the EC50 is > 53 µM (inactive).

As to `CCOc1cc(/C=C(\C#N)C(=O)Nc2ccc(S(N)(=O)=O)cc2)ccc1OCCN1CCOCC1`, the IC50 in test [5] is > 79 µM (inactive).

With `Cc1ccc(C(C)C)c(OCC(=O)NNC(=O)Cn2[nH]c(=O)c3ccccc3c2=O)c1`, in test [5], the IC50 is > 79 µM (inactive).

With `C[C@H](CO)N1C[C@H](C)[C@@H](CN(C)S(=O)(=O)c2ccc(F)cc2)Oc2ccc(NC(=O)Nc3ccc4c(c3)OCO4)cc2C1=O`, the IC50 in [5] was > 79 µM (inactive).

As to `CCOc1ccc2nc(NC(=O)Cn3c(=O)oc4ccc(C(=O)N5CCCC5)cc43)sc2c1`, the IC50 in test [6], in test [7], in test [8] and in [9] was > 99 µM (inactive) each time.

In the case of `C[C@@H]1CN([C@H](C)CO)C(=O)Cc2cc(NC(=O)Cc3cn(C)c4ccccc34)ccc2O[C@H]1CN(C)CC1CCCCC1`, in test [1], the AC50 is 8.13 µM (active).

Take `C[C@@H]1CN([C@H](C)CO)C(=O)Cc2cc(NC(=O)Nc3ccc(F)cc3)ccc2O[C@H]1CN(C)CC1CCCCC1`: the AC50 in test [1] is 6.17 µM (active).

Take `CC(C)(C)OC(=O)C[C@@H]1C/C=C\C[C@@H](CC(=O)N[C@H](CO)Cc2ccccc2)C(=O)NC[C@@H](c2ccccc2)OC1=O`: the IC50 in test [5] is > 79 µM (inactive).

As for `CN(C)CCN(C(=O)c1ccc(Cl)s1)c1nc2ccc(F)cc2s1`, the IC50 in test [6], in test [7], in test [8] and in [9] was > 99 µM (inactive) throughout.

Take `CCOC(=O)c1c(C)[nH]c(C(=O)COc2ccc3ccc(=O)oc3c2)c1C`: the IC50 in test [5] was 23.7 µM (active).

For the compound `CCCCc1ccc2nc(NC(=O)c3oc4ccccc4c3C)sc2c1`, the IC50 in [6], in test [7], in [8] and in [9] was > 99 µM (inactive) each time.

As usually defined, the GI50 is the concentration that inhibits growth by half. Turning to `O=C(OC(=O)n1ccc2ccccc21)n1ccc2ccccc21`, in test [10], the GI50 was > 100 µM (inactive).

Take `Cc1noc(C)c1S(=O)(=O)Nc1ccc2c(c1)C(=O)N([C@@H](C)CO)C[C@H](C)[C@H](CN(C)Cc1ccc(C(=O)Nc3ccccc3N)cc1)O2`: the AC50 in test [1] is 2.08 µM (active).

Turning to `C[C@@H]1CN([C@H](C)CO)C(=O)Cc2cc(NS(=O)(=O)c3ccc(Cl)cc3)ccc2O[C@H]1CN(C)CC1CCCCC1`, the concentration at half-maximal activity (AC50) in [1] was 2.67 µM (active).

On to `Cc1[nH]c(=O)sc1S(=O)(=O)N1CCN(C(=O)c2sc3cc(F)ccc3c2Cl)CC1`, for which the IC50 in [6], in test [7], in test [8] and in test [9] was > 99 µM (inactive) in each case.

Regarding `C[C@@H]1CN([C@@H](C)CO)C(=O)c2cc(NC(=O)Cc3cn(C)c4ccccc34)ccc2O[C@H]1CN(C)Cc1ccc(C(F)(F)F)cc1`, the AC50 in test [1] was 4.31 µM (active).

For the compound `CCCc1ccccc1-c1nc(/C=C/c2ccccc2)no1`, the IC50 in test [6], in [7], in test [8] and in [9] was > 99 µM (inactive) each time.

For `Cc1ccc(C(=O)Nc2nc(-c3ccccn3)cs2)s1`, the AC50 in test [11] was 1.67 µM (active). Moreover, the IC50 in test [5] is > 79 µM (inactive).

The record behind these values is ChEMBL document CHEMBL1201862, “PubChem BioAssay data set” (2004).
